The term IC50 denotes the concentration needed to halve the response being measured.

Some results are limits rather than exact numbers.

T1 sequence (P08581 25-1390): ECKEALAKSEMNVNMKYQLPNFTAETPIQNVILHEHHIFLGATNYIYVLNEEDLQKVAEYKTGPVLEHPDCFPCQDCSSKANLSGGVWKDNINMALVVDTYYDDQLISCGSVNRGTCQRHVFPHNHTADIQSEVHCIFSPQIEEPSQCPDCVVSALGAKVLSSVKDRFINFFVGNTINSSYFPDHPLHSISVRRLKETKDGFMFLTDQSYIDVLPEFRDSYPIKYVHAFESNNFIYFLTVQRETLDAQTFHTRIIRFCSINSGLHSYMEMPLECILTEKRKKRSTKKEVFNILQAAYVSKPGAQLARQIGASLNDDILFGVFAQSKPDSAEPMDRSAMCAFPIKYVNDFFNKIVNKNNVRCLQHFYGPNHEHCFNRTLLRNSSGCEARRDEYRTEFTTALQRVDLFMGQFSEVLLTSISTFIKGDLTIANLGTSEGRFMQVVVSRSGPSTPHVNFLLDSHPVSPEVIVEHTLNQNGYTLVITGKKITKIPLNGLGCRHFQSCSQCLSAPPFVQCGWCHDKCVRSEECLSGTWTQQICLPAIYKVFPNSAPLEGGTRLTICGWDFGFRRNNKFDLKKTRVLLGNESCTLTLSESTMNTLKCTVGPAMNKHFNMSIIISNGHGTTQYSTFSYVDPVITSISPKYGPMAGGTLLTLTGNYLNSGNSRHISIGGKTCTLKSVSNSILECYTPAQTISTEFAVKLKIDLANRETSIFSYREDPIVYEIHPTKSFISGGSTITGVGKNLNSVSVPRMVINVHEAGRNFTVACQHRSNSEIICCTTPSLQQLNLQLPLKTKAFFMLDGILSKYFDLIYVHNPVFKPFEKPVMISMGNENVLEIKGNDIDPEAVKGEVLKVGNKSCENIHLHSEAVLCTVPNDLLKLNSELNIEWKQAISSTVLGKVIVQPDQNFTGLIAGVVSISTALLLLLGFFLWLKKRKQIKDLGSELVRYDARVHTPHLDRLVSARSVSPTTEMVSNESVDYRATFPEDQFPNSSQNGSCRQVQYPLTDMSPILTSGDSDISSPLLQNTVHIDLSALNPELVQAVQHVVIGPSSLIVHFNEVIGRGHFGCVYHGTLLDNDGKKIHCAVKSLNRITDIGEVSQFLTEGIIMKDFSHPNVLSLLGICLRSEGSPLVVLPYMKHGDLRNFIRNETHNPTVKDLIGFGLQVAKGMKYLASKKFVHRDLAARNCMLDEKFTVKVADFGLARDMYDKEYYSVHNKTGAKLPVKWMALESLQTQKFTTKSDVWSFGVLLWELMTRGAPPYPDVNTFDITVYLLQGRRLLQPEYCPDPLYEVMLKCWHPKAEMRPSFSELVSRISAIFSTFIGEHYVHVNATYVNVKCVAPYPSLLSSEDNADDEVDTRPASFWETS

The test has as its target T1, c-Met kinase (recombinant c-Met) (Homo sapiens, UniProt P08581).
T1 construct: 0.27 nM recombinant c-Met
The test is described as follows: In vitro kinase assay I (homogeneous time-resolved fluorescence tyrosine kinase assay). It counts as biochemical. In outline:
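Biotinylated peptide (0.5 μM) phosphorylated by 0.2 nM recombinant c-Met with 50 μM MgATP, 60 min at room temperature, pH 7.4, 5% DMSO. EDTA stop; HTRF read with Eu-anti-phosphotyrosine antibody and streptavidin-APC. IC50 from 4-parameter logistic fit.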
As to `CCn1cc(-n2ccc(=O)c(C(C)c3cccc(-c4ncc(OCCO)cn4)c3)n2)cn1` (single isomer, unassigned) [Example 295, 1-(1-ethyl-1H-pyrazol-4-yl)-3-[(1R or S)-1-{3-[5-(2-hydroxyethoxy)pyrimidin-2-yl]phenyl}ethyl]pyridazin-4(1H)-one], the half-inhibitory concentration (IC50) is less than 100 nM.

For `O=C(Nc1cccc(Cc2nn(-c3cc(F)c(F)c(F)c3)ccc2=O)c1)OCC1CCOC1` (racemic) [Example 559, rac-tetrahydrofuran-3-ylmethyl (3-{[4-oxo-1-(3,4,5-trifluorophenyl)-1,4-dihydropyridazin-3-yl]methyl}phenyl)carbamate], the IC50 is less than 100 nM.

Take `CCn1cc(-n2ccc(=O)c(C(C)c3cccc(-c4ncc(OCC5CCO5)cn4)c3)n2)cn1` (single isomer, unassigned) [Example 296, 1-(1-ethyl-1H-pyrazol-4-yl)-3-[(1R or S)-1-{3-[5-(oxetan-2-ylmethoxy)primidin-2-yl]phenyl}ethyl]pyridazin-4(1H)-one]: the IC50 is less than 100 nM.

As for `CCCOC(=O)Nc1cccc(Cc2nn(-c3cnn(CCOC)c3)ccc2=O)c1` [Example 107, propyl [3-({1-[1-(2-methoxyethyl)-1H-pyrazol-4-yl]-4-oxo-1,4-dihydropyridazin-3-yl}methyl)phenyl]carbamate], the IC50 fell in the range of 100 to 1000 nM.

With `CCn1cnc(-c2cccc(Cc3nn(-c4cnn(CCO)c4)ccc3=O)c2)n1` [Example 191, 3-[3-(1-Ethyl-1H-1,2,4-triazol-3-yl)benzyl]-1-[1-(2-hydroxyethyl)-1H-pyrazol-4-yl]pyridazin-4(1H)-one], the IC50 is less than 100 nM.

Regarding `COCCOC(=O)Nc1cccc(Cc2nn(-c3cc(F)cc(F)c3)ccc2=O)c1` [Example 507, 2-methoxyethyl (3-{[1-(3,5-difluorophenyl)-4-oxo-1,4-dihydropyridazin-3-yl]methyl}phenyl)carbamate], the IC50 was less than 100 nM.

For the molecule `COCCC(=O)Nc1cnc(-c2cccc(Cc3nn(-c4cnn(C)c4)ccc3=O)c2)nc1` [Example 458, 3-Methoxy-N-[2-(3-{[1-(1-methyl-1H-pyrazol-4-yl)-4-oxo-1,4-dihydropyridazin-3-yl]methyl}phenyl)pyrimidin-5-yl]propanamide], the IC50 was less than 100 nM.

Regarding `CCOC(=O)Nc1cccc(Cc2nn(-c3cnn(CCOC)c3)ccc2=O)c1` [Example 106, ethyl [3-({1-[1-(2-methoxyethyl)-1H-pyrazol-4-yl]-4-oxo-1,4-dihydropyridazin-3-yl}methyl)phenyl]carbamate], the IC50 lay within 100 to 1000 nM.

In the case of `COCCOC(=O)Nc1cccc(Cc2nn(-c3cc(F)cc(C(N)=O)c3)ccc2=O)c1` [Example 737, 2-methoxyethyl [3-({1-[3-(aminocarbonyl)-5-fluorophenyl]-4-oxo-1,4-dihydropyridazin-3-yl}methyl)phenyl] carbamate], the IC50 was less than 100 nM.

Turning to `COCCOC(=O)Nc1cccc(Cc2nn(-c3ccc(C#N)cc3)ccc2=O)c1` [Example 508, 2-methoxyethyl (3-{[1-(4-cyanophenyl)-4-oxo-1,4-dihydropyridazin-3-yl]methyl}phenyl)carbamate], the IC50 was less than 100 nM.

Consider `CCOc1cnc(-c2cccc(C(F)c3nn(-c4cnn(C)c4)ccc3=O)c2)nc1` (single isomer, unassigned) [Example 656, 3-[(R or S)-[3-(5-ethoxypyrimidin-2-yl)phenyl](fluoro)methyl]-1-(1-methyl-1H-pyrazol-4-yl)pyridazin-4(1H)-one], for which the IC50 was less than 100 nM.

As to `Cn1cc(-c2cnc(-c3cccc(Cc4nn(-c5cnn(C)c5)ccc4=O)c3)nc2)cn1` [Example 154, 1-(1-methyl-1H-pyrazol-4-yl)-3-{3-[5-(1-methyl-1H-pyrazol-4-yl)pyrimidin-2-yl]benzyl}pyridazin-4(1H)-one], the IC50 was less than 100 nM.

Regarding `CCOC(=O)Nc1cccc(C(F)c2nn(-c3cnn(C)c3)ccc2=O)c1` (racemic) [Example 639, rac-Ethyl(3-{fluoro[1-(1-methyl-1H-pyrazol-4-yl)-4-oxo-1,4-dihydropyridazin-3-yl]methyl}phenyl)carbamate], the half-maximal inhibitory concentration (IC50) was less than 100 nM.

Take `CN(C)CCCc1cnc(-c2cccc(Cc3nn(-c4cnn(C)c4)ccc3=O)c2)nc1` [Example 438, 3-(3-{5-[3-(dimethylamino)propyl]pyrimidin-2-yl}benzyl)-1-(1-methyl-1H-pyrazol-4-yl)pyridazin-4(1H)-one]: the IC50 was less than 100 nM.

On to `Cn1cc(-n2ccc(=O)c(Cc3cccc(-c4ncc(OCC(F)F)cn4)c3)n2)cn1` [Example 274, 3-{3-[5-(2,2-difluoroethoxy)pyrimidin-2-yl]benzyl}-1-(1-methyl-1H-pyrazol-4-yl)pyridazin-4(1H)-one], for which the IC50 was less than 100 nM.

Regarding `Cn1cc(-n2ccc(=O)c(Cc3cccc4c3CNC4=O)n2)cn1` [Example 45, 4-{[1-(1-methyl-1H-pyrazol-4-yl)-4-oxo-1,4-dihydropyridazin-3-yl]methyl}-2,3-dihydro-1H-isoindol-1-one], the IC50 was 1000 to 3000 nM.

Turning to `Cn1cc(-n2ccc(=O)c(Cc3cccc(-c4ncc(-c5cscn5)cn4)c3)n2)cn1` [Example 422, 1-(1-methyl-1H-pyrazol-4-yl)-3-{3-[5-(1,3-thiazol-4-yl)pyrimidin-2-yl]benzyl}pyridazin-4(1H)-one], the IC50 was less than 100 nM.

Turning to `O=C(Nc1cccc(Cc2nn(-c3ccc(F)c(F)c3)ccc2=O)c1)OCC1CCOCC1` [Example 527, tetrahydro-2H-pyran-4-ylmethyl (3-{[1-(3,4-difluorophenyl)-4-oxo-1,4-dihydropyridazin-3-yl]methyl}phenyl)carbamate], the IC50 was less than 100 nM.

For `Cn1cc(-n2ccc(=O)c(Cc3cccc(-c4ncc(O[C@H]5CC[C@H](O)CC5)cn4)c3)n2)cn1` [Example 747, 3-(3-{5-[(trans-4-hydroxycyclohexyl)oxy]pyrimidin-2-yl}benzyl)-1-(1-methyl-1H-pyrazol-4-yl)pyridazin-4(1H)-one], the IC50 was less than 100 nM.

Take `CCOc1cnc(-c2cccc(Cc3nn(-c4ccc(C(=O)NC)c(F)c4)ccc3=O)c2)nc1` [Example 723]: the IC50 is less than 100 nM.

As to `COCCOC(=O)Nc1cccc(Cc2nn(-c3ccc(F)c(F)c3)ccc2=O)c1` [Example 506, 2-methoxyethyl (3-{[1-(3,4-difluorophenyl)-4-oxo-1,4-dihydropyridazin-3-yl]methyl}phenyl)carbamate], the IC50 is less than 100 nM.

For `Cn1cc(-n2ccc(=O)c(Cc3cccc(-c4ncc(OC5CCOC5)cn4)c3)n2)cn1` (racemic) [Example 276, rac-1-(1-methyl-1H-pyrazol-4-yl)-3-{3-[5-(tetrahydrofuran-3-yloxy)pyrimidin-2-yl]benzyl}pyridazin-4(1H)-one], the IC50 is less than 100 nM.

As for `COCCOC(=O)Nc1cccc(Cc2nn(-c3cc(Cl)cc(C#N)c3)ccc2=O)c1` [Example 127, 2-methoxyethyl (3-{[1-(3-chloro-5-cyanophenyl)-4-oxo-1,4-dihydropyridazin-3-yl]methyl}phenyl)carbamate], the IC50 was less than 100 nM.

On to `Cn1cc(-n2ccc(=O)c(Cc3cccc(-c4ncc(OCCc5cnoc5)cn4)c3)n2)cn1` [Example 273, 3-{3-[5-(2-isoxazol-4-ylethoxy)pyrimidin-2-yl]benzyl}-1-(1-methyl-1H-pyrazol-4-yl)pyridazin-4(1H)-one], for which the IC50 is less than 100 nM.

Turning to `Cn1cc(-n2ccc(=O)c(Cc3cccc(NC(=O)OCC4CCCCO4)c3)n2)cn1` (racemic) [Example 563, rac-tetrahydro-2H-pyran-2-ylmethyl (3-{[1-(1-methyl-1H-pyrazol-4-yl)-4-oxo-1,4-dihydropyridazin-3-yl]methyl}phenyl)carbamate], the IC50 was less than 100 nM.

On to `CC(C)COC(=O)Nc1cccc(Cc2nn(-c3cnn(C4CCOC4)c3)ccc2=O)c1` (racemic) [Example 99, rac-2-methylpropyl [3-({4-oxo-1-[1-(tetrahydrofuran-3-yl)-1H-pyrazol-4-yl]-1,4-dihydropyridazin-3-yl}methyl)phenyl]carbamate], for which the IC50 was less than 100 nM.

On to `CCc1cnc(-c2cccc(C(C)c3nn(-c4cnn(C)c4)ccc3=O)c2)nc1` (single isomer, unassigned) [Example 237, 3-{(1R or S)-1-[3-(5-ethylpyrimidin-2-yl)phenyl]ethyl}-1-(1-methyl-1H-pyrazol-4-yl)pyridazin-4(1H)-one], for which the IC50 was less than 100 nM.

Regarding `CN(C)C1CCN(c2cnc(-c3cccc(Cc4nn(-c5cnn(C)c5)ccc4=O)c3)nc2)CC1` [Example 444, 3-(3-{5-[4-(dimethylamino)piperidin-1-yl]pyrimidin-2-yl}benzyl)-1-(1-methyl-1H-pyrazol-4-yl)pyridazin-4(1H)-one], the IC50 is less than 100 nM.

Turning to `COC(=O)CCCn1cc(-n2ccc(=O)c(Cc3cccc(NC(=O)OCC(C)C)c3)n2)cn1` [Example 179, methyl 4-{4-[3-(3-{[(2-methylpropoxy)carbonyl]amino}benzyl)-4-oxopyridazin-1(4H)-yl]-1H-pyrazol-1-yl}butanoate], the IC50 was less than 100 nM.

On to `CCOc1cnc(-c2cccc(Cc3nn(-c4cnn(C)c4)ccc3=O)c2)nc1CC` [Example 178, 3-[3-(5-ethoxy-4-ethylpyrimidin-2-yl)benzyl]-1-(1-methyl-1H-pyrazol-4-yl)pyridazin-4(1H)-one], for which the IC50 is less than 100 nM.

As to `Cn1cc(-n2ccc(=O)c(Cc3cccc(-c4ncc(O[C@@H]5CCC[C@H]5O)cn4)c3)n2)cn1` (single isomer, unassigned) [Example 378], the IC50 was less than 100 nM.

Consider `Cn1cc(-n2ccc(=O)c(Cc3cccc(-c4ncc(N5CCCC(F)C5)cn4)c3)n2)cn1` (racemic) [Example 468, rac-3-{3-[5-(3-fluoro-piperidin-1-yl)pyrimidin-2-yl]benzyl)-1-(1-methyl-1H-pyrazol-4-yl)pyridazin-4(1H)-one], for which the IC50 was less than 100 nM.

On to `Cn1cc(-n2ccc(=O)c(Cc3cccc(NC(=O)OCC4CCNCC4)c3)n2)cn1` [Example 617, piperidin-4-ylmethyl (3-{[1-(1-methyl-1H-pyrazol-4-yl)-4-oxo-1,4-dihydropyridazin-3-yl]methyl}phenyl)carbamate], for which the IC50 is less than 100 nM.
